Test results taken from publication PMC8389614, “A Comparison of Acute Pharmacological Effects of Methylone and MDMA Administration in Humans and Oral Fluid Concentrations as Biomarkers of Exposure” (Biology, 2021).

How the values were obtained:
[1] = system: healthy poly-drug users; assay: Subjective effects, VESSPA-SSE questionnaire; assay type: in vivo, humans; parameters: key to VESSPA PS Dunnet’s Test: “a” (times 0–1 h); “b” (times 0–2 h); “c” (times 0–4 h); not significant (NS)
Source text: (§1) The study was designed as a non-controlled prospective observational study in a naturalistic setting with methylone and MDMA self-administration. The methodology, including procedures and evaluations, coincides with previous observational–naturalistic studies aimed at evaluating the acute effects of other NPS [38, 39, 40]. Six subjects (5 M, 1 F) self-administered MDMA and 8 subjects (5 M, 3 F) self-administered methylone. Each subject participated only in one session. Participants brought their own substance obtained from an unknown source, which was tested by Energy Control, a harm reduction organization that provides a drug checking service to drug users. Pills containing methylone and MDMA were analyzed by gas chromatography associated with mass spectrometry (GC/MS), a technique that traces the presence of the most frequent drugs of abuse, such as MDMA, cocaine, heroin, amphetamine and methamphetamine, LSD, and multiple NPS (methylone, mephedrone, and other synthetic cathinones, synthetic cannabinoids, tryptamines, among others).
(§2) In both sessions, participants selected the dose of methylone or MDMA according to their previous drug use experience. Doses of methylone could be selected from a range (75–300 mg) that was previously defined according to the consulted literature. The WHO Expert Committee on Drug Dependence (Thirty-Sixth Meeting, Geneva, Switzerland, 16–20 June 2014) established that 60 mg of methylone was the threshold dose and doses over 250 mg were often related to very strong activity. Some users have reported uses of 300 mg of methylone as a common dose [www.erowid.org] (accessed on 15 June 2021). The mean of the selected doses of MDMA was 87.50 mg (3 subjects ingested 75 mg (2 males and 1 female), 3 males 100 mg). In the other study session, methylone doses ranged from 100 to 300 mg, with a mean of 187.50 mg. Based on their dose selection, 1 male ingested 100 mg, 2 subjects 150 mg (1 male and 1 female), 4 subjects 200 mg (2 males and 2 females), and 1 male 300 mg.
(§3) The sessions were conducted in a naturalistic setting. Participants were allowed to talk, read, listen to music, or play games, except during the evaluation times. However, they were asked to refrain from talking about the effects of the substance. All the subjects were evaluated simultaneously at baseline, 1, 2, and 4 h after administration of methylone or MDMA, which occurred approximately at 16:00 h. At each time point, evaluations were followed in a specific order: physiological effects, oral fluid collection, and subjective effects scales and questionnaires.
(§4) Subjective effects were evaluated at baseline, 1, 2, and 4 h after self-administration using visual analogue scales (VAS), the Addiction Research Center Inventory (ARCI), and the Evaluation of Subjective Effects of Substances with Abuse Potential questionnaire (VESSPA-SSE).
The VESSPA-SSE is a questionnaire sensitive to subjective effects related to stimulants such as MDMA that includes six subscales: sedation (S), psychosomatic anxiety (ANX), changes in perception (CP), pleasure and sociability (SOC), activity and energy (ACT), and psychotic symptoms (PS).
Vital signs (SBP, DBP, and HR) and subjective effects (VAS, ARCI, and VESSPA-SSE) were baseline-adjusted. Maximum effects and the time in which maximum effects appeared were determined, and the area under the curve (AUC0–4h) was calculated with the trapezoidal rule.
Thirdly, to find possible significant changes from baseline, a Dunnett multiple comparison test was conducted to compare each time point with baseline in both drug conditions (0–1 h, 0–2 h, 0–4 h).

[2] = system: users; parameters: method as in earlier work; details: cited from earlier work
[3] = system: 5-HT1A receptor; parameters: method as in PMID 25237120, PMID 23583454; details: cited from earlier work
[4] = system: healthy poly-drug users; assay: Subjective effects, visual analogue scales (VAS); assay type: in vivo, humans; parameters: key to VAS stimulated Dunnet’s Test / VAS change in lights Dunnet’s Test / VAS different body feeling Dunnet’s Test / VAS different surrounding Dunnet’s Test / VAS dizziness Dunnet’s Test / VAS headache Dunnet’s Test / VAS face flushing Dunnet’s Test: “a” (times 0–1 h); “b” (times 0–2 h); “c” (times 0–4 h); not significant (NS)
Source text: as §1, §2, §3, §4
Visual analogue scales (100 mm, from “not at all” to “extremely”) contained 30 items that subjects were asked to rate, such as: intensity, stimulated, high, good effects, liking, happiness, drunkenness, changes in colors, changes in shapes, changes in lights, hallucinations (seeing lights or spots), hallucinations (seeing of animals), changes in hearing, hallucinations (hearing sounds or voices), different or changed body feeling, unreal body feeling, changes in distances, different surroundings, unreal surroundings, confusion, fear, depression or sadness, drowsiness, dizziness, bad effects, headache, sickness, vertigo, shortness of breath, and face flushing.
Vital signs (SBP, DBP, and HR) and subjective effects (VAS, ARCI, and VESSPA-SSE) were baseline-adjusted. Maximum effects and the time in which maximum effects appeared were determined, and the area under the curve (AUC0–4h) was calculated with the trapezoidal rule. […]

[5] = oral, methylone 100–300 mg n=8, MDMA 75–100 mg n=6, baseline-adjusted, mean ± SD
[6] = time points significantly different from baseline
[7] = oral administration, user reports

## CNC(C)C(=O)c1ccc2c(c1)OCO2 (stereo not shown) [Methylone, 3,4-methylenedioxymethcathinone]
[1]; [5]
  VESSPA ACT (activity and energy) AUC0–4h: 24.44 ± 17.87
  VESSPA ACT (activity and energy) Emax: 9.75 ± 6.25 score
  VESSPA ANX (psychosomatic anxiety) AUC0–4h: 17.94 ± 11.17
  VESSPA ANX (psychosomatic anxiety) Emax: 7.50 ± 4.69 score
  VESSPA PS (psychotic symptoms) AUC0–4h: 5.63 ± 5.58
  VESSPA PS (psychotic symptoms) Emax: 2.63 ± 2.20 score
  VESSPA S (sedation) AUC0–4h: 7.06 ± 6.45
  VESSPA S (sedation) Emax: 3.38 ± 2.50 score
  VESSPA SOC (pleasure and sociability) AUC0–4h: 31.31 ± 25.40
  VESSPA SOC (pleasure and sociability) Emax: 12.25 ± 8.31 score
[1]; [6]
  VESSPA ACT Dunnet’s Test: a, b
  VESSPA ANX Dunnet’s Test: b, c
  VESSPA PS Dunnet’s Test: b
  VESSPA S Dunnet’s Test: b, c
  VESSPA SOC Dunnet’s Test: a, b
[2]; WHO Expert Committee on Drug Dependence
  Threshold dose: 60 mg
[2]; [7]
  Onset of effects after administration: 15 to 60 min
  Time of peak effects: 60 to 90 min
  Total duration of effects: 3 to 5 h
[3]
  Activity at the 5-HT1A receptor: partial agonist
[4]; oral, VAS, ARCI, VESSPA-SSE overall
  Time at which subjective effects in general reached maximum values: 2 h
[4]; [5]
  VAS change in lights AUC0–4h: 10.88 ± 11.85
  VAS change in lights Emax: 4.88 ± 4.82 mm
  VAS content AUC0–4h: 80.06 ± 82.59
  VAS content Emax: 35.25 ± 30.38 mm
  VAS different body feeling AUC0–4h: 44.13 ± 43.86
  VAS different body feeling Emax: 22.25 ± 20.60 mm
  VAS different surrounding AUC0–4h: 5.69 ± 10.39
  VAS different surrounding Emax: 4.38 ± 7.50 mm
  VAS dizziness AUC0–4h: 2.63 ± 3.02
  VAS dizziness Emax: 2.13 ± 2.53 mm
  VAS face flushing AUC0–4h: 64.50 ± 56.75
  VAS face flushing Emax: 31.25 ± 21.91 mm
  VAS good effects AUC0–4h: 74.06 ± 67.08
  VAS good effects Emax: 35.63 ± 30.63 mm
  VAS headache AUC0–4h: 23.63 ± 28.94
  VAS headache Emax: 20.25 ± 28.93 mm
  VAS high AUC0–4h: 55.06 ± 53.54
  VAS high Emax: 24.0 ± 21.28 mm
  VAS intensity AUC0–4h: 45.88 ± 43.66
  VAS intensity Emax: 20.0 ± 16.48 mm
  VAS stimulated AUC0–4h: 50.56 ± 47.38
  VAS stimulated Emax: 22.50 ± 18.81 mm
[4]; oral, methylone 100–300 mg n=8, MDMA 75–100 mg n=6, median (min–max)
  VAS change in lights Tmax: 1.0 (0.0–2.0) h
[4]; [6]
  VAS change in lights Dunnet’s Test: a, b
  VAS content Dunnet’s Test: a, b
  VAS different body feeling Dunnet’s Test: NS
  VAS different surrounding Dunnet’s Test: NS
  VAS dizziness Dunnet’s Test: a
  VAS face flushing Dunnet’s Test: b
  VAS good effects Dunnet’s Test: a, b
  VAS headache Dunnet’s Test: c
  VAS high Dunnet’s Test: a, b
  VAS intensity Dunnet’s Test: a, b
  VAS stimulated Dunnet’s Test: b
